Measured values taken from patent US20210162009A1, “CHEMOKINE VARIANTS AS IMMUNE STIMULANTS” (THE MEDICAL COLLEGE OF WISCONSIN, INC., priority 2017, published 2021).

Columns and labels:
[1] = Toxicity: serum AST, ALT, BUN; format: in vivo; details: 5 μM twice weekly for 3 weeks, mice
Experimental: Serum levels of aspartate aminotransferase (AST) and alanine aminotransferase (ALT) were measured using serologic assays to measure hepatic toxicity. Serum levels of blood urea nitrogen (BUN) were monitored to detect kidney damage.
Toxicity—Blood, bone marrow, and tissue levels of CXCL12 were measured using a commercially available sandwich ELISA assay (20-22). The ELISA will detect both endogenous and exogenous CXCL12. Toxicity is monitored using histopathologic assessment of heart, and kidney, and serum assays of hepatic (e.g. AST, ALT, AP) and kidney (e.g. BUN, creatinine) biomarkers, using standard veterinary assays. […] Published data (Roy et al., 2014) indicate twice weekly injection of 5 μM chemokine protein is well tolerated, with no change in body weight or appearance after 120 days in tumor xenografted mice.

[2] = relative to natural CXCL12; cited from earlier work
[3] = molecular target: T1, CXCR4 (Homo sapiens, UniProt P61073); details: 125I-CXCL12 displacement; read-out: Kd for binding CXCR4; cited from earlier work
[4] = Translational diffusion measurements (dimerisation state); format: physicochemical
Description: The lines connecting the cysteines show where the intra-and intermolecular disulfide bonds are. A) CXCL12-α2 locked dimer amino acid sequence with the conserved intramolecular disulfide bonds (black lines) and the engineered intermolecular disulfide bonds (red lines) illustrated. B) SDS-PAGE of CXCL12-αand CXCL12-α2 treated with and without dithiothreitol (DTT). […] D) N-terminal peptides corresponding to the first thirty-eight amino acids of CXCR4 are illustrated. The sequence for p38 is identical to that of CXCR4 except for an additional N-terminal Gly-Ser dipeptide (cloning artifact) and the C28A substitution (green) introduced to prevent oxidative peptide dimer formation. The sulfated peptides are identical to p38 except for the inclusion of sulfotyrosine at position 21 for p38-sY1 and at positions 7, 12 and 21 for p38-sY3.

[5] = test system: melanoma metastasis; details: cited from earlier work; for blocking of tumor metastasis: side-by-side equimolar comparison, 5 μM
[6] = Heparin binding
Description: Further, in addition to binding CXCR4, CXCL12 also binds to heparin found in the extracellular matrix on cell surfaces. […] Amino acid substitutions in CXCL12, including K24S, K27S, or K24S/K27S can prevent heparin binding and increase the half-life of CXCL12 in vivo; therefore, similar mutations in CXCL12-α2 would likely prevent heparin binding and increase the in vivo half-life of the dimer.

[7] = molecular target: T1, CXCR4; details: 10 nM CXCL12 variants, with or without pertussis toxin; cited from earlier work
[8] = test system: CD34+CXCR4+ stem cells; assay: Mobilization of CD34+CXCR4+ hematopoietic stem cells; format: in vivo, mice
Experimental: (§1) FIGS. 6A-6C show mobilization of lymphocytes into the peripheral blood (A) and out of the bone marrow (B) 1 hour after subcutaneous injection of 5 μM (0.8 mg/kg) CXCL12 locked dimer 104 or 4000 μM (20 mg/kg) plerixafor/AMD3100 102. Control mice received an injection of the chemokine vehicle (Veh), sterile PBS 100. Values are mean±SEM, n=3-4 mice per group. Asterisks (****)=[…].
FIGS. 8A-8C show mobilization of hematopoietic stem cells by the CXCL12 locked dimer. Mice were bled (baseline) prior to subcutaneous injection of LD at a final concentration of 5 μM. Mice were re-bled 15-minutes (FIG. 8A), 2-hours (FIG. 8B) or 4-hours (FIG. 8C) later. Two separate cohorts of mice (shown by circles and squares) were treated (n=3 per group) and show consistent increases in the number of CD34+ stem cells in the circulation.
After blood collection, treated and control mice were sacrificed and the bone marrow of each femur flushed with PBS. […] Peripheral and bone marrow immunocytes were incubated with fluorescence-tagged antibodies to detect the HSC markers CD34, CD11, SCA1, CD90, CD38, Lin and CXCR4, or the T cell and B cell markers CD3 and CD19, respectively.
FIGS. 8A-8C also show mobilization of hematopoietic stem cells by the CXCL12 locked dimer. […] Levels of CD34+CXCR4+ stem cells within circulating blood were detected and quantified using multiparametric flow cytometry.

[9] = test system: lymphocytes; assay: Mobilization of lymphocytes into peripheral blood and out of bone marrow; format: in vivo, mice
Experimental: as §1
The chemokine CXCL12 is produced by bone marrow stromal cells (17). A single dose infusion of plerixafor/AMD3100 competitively antagonizes CXCR4 to disrupt stromal CXCL12 interactions with bone marrow cells, mobilizing HSC to enter into the peripheral blood (6). […] Importantly, the 5 μM the CXCL12 locked dimer dose used is the same concentration we have used to block tumor metastasis in vivo and where plerixafor/AMD3100 is ineffective (FIGS. 5A-5B).
After blood collection, treated and control mice were sacrificed and the bone marrow of each femur flushed with PBS. Peripheral blood and marrow samples were centrifuged (1800×g for 15 min at room temperature), the plasma removed, and the leukocytes in the buffy coat collected, an aliquot used to enumerate the total cell population using hemocytometry, and the remaining cells transferred to flow cytometry tubes. Peripheral and bone marrow immunocytes were incubated with fluorescence-tagged antibodies to detect the HSC markers CD34, CD11, SCA1, CD90, CD38, Lin and CXCR4, or the T cell and B cell markers CD3 and CD19, respectively.
Control mice received an injection of the chemokine vehicle (Veh), sterile PBS 100. Values are mean ±SEM, n=3-4 mice per group. Asterisks (****)=P≤0.001.

[10] = test system: 5T33 multiple myeloma cells; assay: Mobilization of GFP-tagged 5T33 multiple myeloma cells into the blood; format: in vivo, mice; details: 50 μM subcutaneous, 1 hour, GFP+ cells by flow cytometry
Experimental: Representative flow cytometry plots are on the left measuring side scatter counts (SSC) and GFP+-5T33 multiple myeloma cells in the circulation before and after treatment shown in the right panels. n=5 mice per treatment group.
This mobilization is compared to the mobilization following administration of AMD3100. Mice bearing GFP-tagged 5T33 multiple myeloma cells were bled immediately prior to subcutaneous injection of either the CXCL12 locked dimer (50 μM) or AMD3100 (4 mM). Individual mice were re-bled 1-hour later and GFP+ myeloma tumor cells in peripheral circulation quantified by flow cytometry. Representative flow cytometry plots are on the left with GFP+-5T33 multiple myeloma cells in the circulation before and after treatment shown in the right panels. n=5 mice per treatment group.

[11] = fitted, 20 mM sodium phosphate pH 7.4

T1 sequence (P61073 whole entry, the tested form may be a part): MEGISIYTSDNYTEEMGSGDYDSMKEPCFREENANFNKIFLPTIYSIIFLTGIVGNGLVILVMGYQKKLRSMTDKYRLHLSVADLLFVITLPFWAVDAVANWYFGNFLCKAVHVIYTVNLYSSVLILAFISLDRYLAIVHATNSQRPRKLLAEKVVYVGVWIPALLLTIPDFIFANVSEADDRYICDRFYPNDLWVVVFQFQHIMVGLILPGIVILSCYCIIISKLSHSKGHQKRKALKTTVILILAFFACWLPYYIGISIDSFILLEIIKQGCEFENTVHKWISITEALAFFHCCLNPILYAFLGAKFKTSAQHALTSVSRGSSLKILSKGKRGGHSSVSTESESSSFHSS

Compound | hepatic or kidney toxicity (AST, ALT, BUN) [1] | stability against enzymatic digestion in serum [2] | Kd [3] | dimer Ds value [4, 11] | pure monomer Ds value [4, 11] | blocking of tumor metastasis [5] | inhibition of melanoma metastasis ([5]; dose response) | melanoma metastasis, comparison with plerixafor/AMD3100 ([5]; equimolar concentrations) | heparin binding [6] | G protein dependent intracellular calcium flux [7] | number of CD34+ stem cells in circulation ([8]; 5 μM s.c., 15 minutes, 2 hours or 4 hours, two cohorts) | mobilization of CXCR4+CD34+ hematopoietic stem cells (FIG. 6C) ([8]; FIG. 6C) | bone marrow resident lymphocytes ([9]; 5 μM, subcutaneous, 1 hour) | mobilization of hematopoietic cells into peripheral circulation ([9]; 5 μM, subcutaneous, 1 hour) | ability to mobilize lymphocytes, locked dimer vs AMD3100 ([9]; 1 hour after s.c. 5 μM (0.8 mg/kg) locked dimer or 4000 μM (20 mg/kg) plerixafor/AMD3100) | potency relative to plerixafor for mobilizing lymphocytes, mg/kg basis ([9]; vs plerixafor) | potency relative to plerixafor for mobilizing lymphocytes, molar basis ([9]; vs plerixafor, also monocytes and neutrophils) | mobilization of multiple myeloma cells into the blood [10] | Diffusion coefficient Ds ([4]; 10, 50 and 150 μM protein)
wild-type CXCL12: wild type CXCL12 chemokine (SEQ ID NO:3), natural ligand for CXCR4 | little hepatic or kidney toxicity | rapidly inactivated in serum | 25 nM | ~1.0 ×10^−6 cm^2s^−1 | ~1.6 ×10^−6 cm^2s^−1 |  |  |  |  |  |  |  |  |  |  |  |  |  | 
c1cc(CN2CCCNCCNCCCNCC2)ccc1CN1CCCNCCNCCCNCC1 [plerixafor/AMD3100, plerixafor, reference compound] |  |  |  |  |  | ineffective |  |  |  |  |  |  |  |  |  |  |  |  | 
CXCL12 locked dimer: covalently locked dimer comprising two CXCL12 L36C/A65C sequences (SEQ ID NO: 1), linked by intermolecular disulfide bonds | little hepatic or kidney toxicity | enhanced stability against enzymatic digestion in serum |  |  |  | blocked tumor metastasis | dose dependently inhibits melanoma metastasis | more effective than plerixafor/AMD3100 | also binds heparin | activates the expected and prototypical G protein dependent intracellular calcium flux | consistent increases in the number of CD34+ stem cells in circulation | mobilization of CXCR4+CD34+ hematopoietic stem cells | concomitant decrease in bone marrow resident lymphocytes | potently stimulated mobilization of hematopoietic cells into peripheral circulation | no statistical difference | 3 X | 1000 × | mobilizes multiple myeloma cells into the blood | 1.08-1.09 ×10^−6 cm^2s^−1
